Laboratory results taken from patent US8168651B2, “Protein kinase modulators” (Cylene Pharmaceuticals, Inc., priority 2008, dated 2012).

Legend:
Assay in all cases: Standardized radiometric kinase assays, percentage of activity at 0.5 μM;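 also: Read-out is ³³P-labelled substrate protein phosphorylated by each kinase, captured on filters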
[1] = molecular target: each individual kinase of the panel (Homo sapiens, UniProt Q9H2K8)
[2] = molecular target: each individual kinase of the panel (Homo sapiens, UniProt P53667)
[3] = molecular target: each individual kinase of the panel (Homo sapiens, UniProt P41743)
Sequence of each individual kinase of the panel (Homo sapiens, UniProt P41743) (P41743 2-596 limits assumed): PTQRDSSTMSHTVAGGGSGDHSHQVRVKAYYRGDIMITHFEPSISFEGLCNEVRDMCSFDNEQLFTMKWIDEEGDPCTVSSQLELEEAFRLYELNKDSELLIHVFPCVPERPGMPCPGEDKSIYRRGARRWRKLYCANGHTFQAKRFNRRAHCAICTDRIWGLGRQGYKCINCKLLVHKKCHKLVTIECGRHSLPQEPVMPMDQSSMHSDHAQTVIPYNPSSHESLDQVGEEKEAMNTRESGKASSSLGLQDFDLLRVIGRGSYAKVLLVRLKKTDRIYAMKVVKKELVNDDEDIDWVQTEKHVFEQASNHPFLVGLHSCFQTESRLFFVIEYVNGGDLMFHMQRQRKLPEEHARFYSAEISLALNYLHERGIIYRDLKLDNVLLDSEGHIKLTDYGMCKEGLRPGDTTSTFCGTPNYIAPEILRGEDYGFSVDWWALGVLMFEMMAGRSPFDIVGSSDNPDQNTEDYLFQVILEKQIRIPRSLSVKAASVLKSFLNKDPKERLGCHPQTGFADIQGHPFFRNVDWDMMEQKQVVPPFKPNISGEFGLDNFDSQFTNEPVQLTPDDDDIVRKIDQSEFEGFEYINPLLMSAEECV

[4] = molecular target: each individual kinase of the panel (Homo sapiens, UniProt Q16644)
[5] = molecular target: each individual kinase of the panel (Homo sapiens, UniProt P78362)
[6] = molecular target: each individual kinase of the panel (Homo sapiens, UniProt P54753)
[7] = molecular target: each individual kinase of the panel (Homo sapiens, UniProt Q02156)
[8] = molecular target: each individual kinase of the panel (Homo sapiens, UniProt Q16513)
[9] = molecular target: each individual kinase of the panel (Homo sapiens, UniProt P21709)
Sequence of each individual kinase of the panel (Homo sapiens, UniProt P21709) (P21709 26-976 limits assumed): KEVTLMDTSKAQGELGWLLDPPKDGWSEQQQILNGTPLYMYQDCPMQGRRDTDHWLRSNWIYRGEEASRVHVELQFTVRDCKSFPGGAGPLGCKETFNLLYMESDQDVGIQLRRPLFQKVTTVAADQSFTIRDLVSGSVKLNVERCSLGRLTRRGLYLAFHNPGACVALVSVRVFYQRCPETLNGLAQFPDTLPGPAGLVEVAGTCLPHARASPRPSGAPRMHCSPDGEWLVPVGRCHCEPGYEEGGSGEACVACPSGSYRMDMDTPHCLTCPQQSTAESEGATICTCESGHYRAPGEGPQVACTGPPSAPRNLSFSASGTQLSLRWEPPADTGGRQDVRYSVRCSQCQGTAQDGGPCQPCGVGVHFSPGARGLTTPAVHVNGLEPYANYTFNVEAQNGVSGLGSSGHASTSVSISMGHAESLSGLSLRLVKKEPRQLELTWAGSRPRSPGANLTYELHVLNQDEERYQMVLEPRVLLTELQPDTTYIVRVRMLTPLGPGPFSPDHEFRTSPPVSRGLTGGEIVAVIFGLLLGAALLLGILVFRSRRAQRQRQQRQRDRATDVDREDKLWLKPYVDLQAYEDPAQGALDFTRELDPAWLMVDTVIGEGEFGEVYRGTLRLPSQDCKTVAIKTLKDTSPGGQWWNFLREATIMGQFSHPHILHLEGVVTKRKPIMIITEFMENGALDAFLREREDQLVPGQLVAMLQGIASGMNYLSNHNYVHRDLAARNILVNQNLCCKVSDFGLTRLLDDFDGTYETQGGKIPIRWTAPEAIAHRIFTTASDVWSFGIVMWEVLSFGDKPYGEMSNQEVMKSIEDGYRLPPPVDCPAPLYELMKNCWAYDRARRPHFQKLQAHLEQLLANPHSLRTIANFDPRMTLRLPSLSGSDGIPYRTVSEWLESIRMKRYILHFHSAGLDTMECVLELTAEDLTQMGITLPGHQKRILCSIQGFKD

[10] = molecular target: each individual kinase of the panel (Homo sapiens, UniProt P31751)
[11] = molecular target: each individual kinase of the panel (Homo sapiens, UniProt P05771)
[12] = molecular target: each individual kinase of the panel (Homo sapiens, UniProt P36896)
[13] = molecular target: each individual kinase of the panel (Homo sapiens, UniProt Q05655)
[14] = molecular target: each individual kinase of the panel (Homo sapiens, UniProt Q9UIK4)
[15] = molecular target: each individual kinase of the panel (Homo sapiens, UniProt O96017)
[16] = molecular target: each individual kinase of the panel (Homo sapiens, UniProt Q8TF76)
[17] = molecular target: each individual kinase of the panel (Homo sapiens, UniProt P29322)
Sequence of each individual kinase of the panel (Homo sapiens, UniProt P29322) (P29322 28-1005 limits assumed): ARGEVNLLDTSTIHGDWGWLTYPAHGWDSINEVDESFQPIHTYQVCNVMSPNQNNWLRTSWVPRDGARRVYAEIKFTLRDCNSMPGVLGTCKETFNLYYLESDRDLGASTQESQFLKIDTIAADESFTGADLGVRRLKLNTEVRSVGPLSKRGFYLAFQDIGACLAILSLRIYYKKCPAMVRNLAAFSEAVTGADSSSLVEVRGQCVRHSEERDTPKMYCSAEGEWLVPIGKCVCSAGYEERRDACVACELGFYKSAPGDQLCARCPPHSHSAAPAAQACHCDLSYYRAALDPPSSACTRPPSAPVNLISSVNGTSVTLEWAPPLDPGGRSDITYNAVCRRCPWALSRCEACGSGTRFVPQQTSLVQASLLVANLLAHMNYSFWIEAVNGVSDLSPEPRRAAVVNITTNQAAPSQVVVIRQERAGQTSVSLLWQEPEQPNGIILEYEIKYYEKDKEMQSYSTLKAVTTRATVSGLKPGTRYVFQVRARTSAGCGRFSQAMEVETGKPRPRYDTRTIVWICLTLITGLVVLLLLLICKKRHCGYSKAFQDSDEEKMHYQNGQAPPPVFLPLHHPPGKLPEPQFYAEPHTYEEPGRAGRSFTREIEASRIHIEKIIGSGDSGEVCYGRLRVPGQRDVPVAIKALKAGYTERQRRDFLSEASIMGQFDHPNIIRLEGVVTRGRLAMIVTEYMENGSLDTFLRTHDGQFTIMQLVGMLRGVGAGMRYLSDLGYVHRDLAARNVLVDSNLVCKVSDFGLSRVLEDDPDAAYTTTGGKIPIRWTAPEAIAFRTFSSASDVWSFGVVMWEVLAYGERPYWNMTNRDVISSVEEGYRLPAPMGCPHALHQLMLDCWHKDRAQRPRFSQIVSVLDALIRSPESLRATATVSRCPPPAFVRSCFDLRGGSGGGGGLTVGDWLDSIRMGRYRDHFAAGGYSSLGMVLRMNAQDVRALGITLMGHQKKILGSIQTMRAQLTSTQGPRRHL

[18] = molecular target: each individual kinase of the panel (Homo sapiens, UniProt P53355)
[19] = molecular target: each individual kinase of the panel (Homo sapiens, UniProt P21802, N549H)
Sequence of each individual kinase of the panel (Homo sapiens, UniProt P21802, N549H) (P21802 22-821 N549H limits assumed): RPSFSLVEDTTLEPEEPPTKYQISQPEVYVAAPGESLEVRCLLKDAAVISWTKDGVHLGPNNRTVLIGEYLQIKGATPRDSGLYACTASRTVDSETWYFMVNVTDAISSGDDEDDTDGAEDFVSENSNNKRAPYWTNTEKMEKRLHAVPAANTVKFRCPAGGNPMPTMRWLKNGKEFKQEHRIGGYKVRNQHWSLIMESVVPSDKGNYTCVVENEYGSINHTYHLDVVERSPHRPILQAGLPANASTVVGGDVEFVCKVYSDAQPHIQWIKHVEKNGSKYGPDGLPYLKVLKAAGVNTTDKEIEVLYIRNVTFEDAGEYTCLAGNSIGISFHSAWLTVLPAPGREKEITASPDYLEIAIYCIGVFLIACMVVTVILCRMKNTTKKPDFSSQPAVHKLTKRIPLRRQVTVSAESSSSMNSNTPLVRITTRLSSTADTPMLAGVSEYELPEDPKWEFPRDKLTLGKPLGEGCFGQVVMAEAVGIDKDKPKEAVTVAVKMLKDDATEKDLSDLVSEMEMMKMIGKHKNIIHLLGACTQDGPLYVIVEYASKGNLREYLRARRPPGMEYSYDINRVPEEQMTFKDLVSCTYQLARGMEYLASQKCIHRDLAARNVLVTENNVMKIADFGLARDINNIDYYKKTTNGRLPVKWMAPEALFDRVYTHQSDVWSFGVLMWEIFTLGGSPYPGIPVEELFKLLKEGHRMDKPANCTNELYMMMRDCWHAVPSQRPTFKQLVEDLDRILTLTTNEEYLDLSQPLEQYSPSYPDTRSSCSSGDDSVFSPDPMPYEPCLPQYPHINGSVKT

[20] = molecular target: each individual kinase of the panel (Homo sapiens, UniProt O96017, I157T)
[21] = molecular target: each individual kinase of the panel (Homo sapiens, UniProt Q9Y5S2)
[22] = molecular target: each individual kinase of the panel (Homo sapiens, UniProt P11362, V561M)
[23] = molecular target: each individual kinase of the panel (Homo sapiens, UniProt P48730)
[24] = molecular target: each individual kinase of the panel (Homo sapiens, UniProt P29317)
Sequence of each individual kinase of the panel (Homo sapiens, UniProt P29317) (P29317 24-976 limits assumed): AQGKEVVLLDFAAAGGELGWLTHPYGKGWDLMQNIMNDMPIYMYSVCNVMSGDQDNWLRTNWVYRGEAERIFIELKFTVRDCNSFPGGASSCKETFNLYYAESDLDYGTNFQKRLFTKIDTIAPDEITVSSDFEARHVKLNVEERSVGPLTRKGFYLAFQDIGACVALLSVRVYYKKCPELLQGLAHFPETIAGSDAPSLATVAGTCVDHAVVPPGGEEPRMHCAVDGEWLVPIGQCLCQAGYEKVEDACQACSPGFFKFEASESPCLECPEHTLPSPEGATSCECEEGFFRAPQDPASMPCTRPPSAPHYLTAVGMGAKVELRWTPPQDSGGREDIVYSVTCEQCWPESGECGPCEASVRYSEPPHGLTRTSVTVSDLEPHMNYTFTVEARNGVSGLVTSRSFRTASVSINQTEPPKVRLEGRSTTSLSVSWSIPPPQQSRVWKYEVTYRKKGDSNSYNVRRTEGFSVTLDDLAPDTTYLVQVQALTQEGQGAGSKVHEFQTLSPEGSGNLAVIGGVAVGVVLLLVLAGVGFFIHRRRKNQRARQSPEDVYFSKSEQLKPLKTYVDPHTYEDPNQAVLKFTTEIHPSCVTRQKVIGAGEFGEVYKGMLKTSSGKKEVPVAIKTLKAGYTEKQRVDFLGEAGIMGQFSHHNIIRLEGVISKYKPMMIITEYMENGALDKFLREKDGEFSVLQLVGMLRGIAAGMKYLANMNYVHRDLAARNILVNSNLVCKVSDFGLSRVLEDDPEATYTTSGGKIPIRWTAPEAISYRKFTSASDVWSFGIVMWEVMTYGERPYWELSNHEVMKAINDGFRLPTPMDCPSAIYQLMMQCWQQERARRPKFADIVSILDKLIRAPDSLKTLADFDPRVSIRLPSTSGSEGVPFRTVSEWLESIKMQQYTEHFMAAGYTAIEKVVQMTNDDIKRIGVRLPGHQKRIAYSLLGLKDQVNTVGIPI

[25] = molecular target: each individual kinase of the panel (Homo sapiens, UniProt O94806)
[26] = molecular target: each individual kinase of the panel (Homo sapiens, UniProt Q06187)
Sequence of each individual kinase of the panel (Homo sapiens, UniProt Q06187) (Q06187 2-659 limits assumed): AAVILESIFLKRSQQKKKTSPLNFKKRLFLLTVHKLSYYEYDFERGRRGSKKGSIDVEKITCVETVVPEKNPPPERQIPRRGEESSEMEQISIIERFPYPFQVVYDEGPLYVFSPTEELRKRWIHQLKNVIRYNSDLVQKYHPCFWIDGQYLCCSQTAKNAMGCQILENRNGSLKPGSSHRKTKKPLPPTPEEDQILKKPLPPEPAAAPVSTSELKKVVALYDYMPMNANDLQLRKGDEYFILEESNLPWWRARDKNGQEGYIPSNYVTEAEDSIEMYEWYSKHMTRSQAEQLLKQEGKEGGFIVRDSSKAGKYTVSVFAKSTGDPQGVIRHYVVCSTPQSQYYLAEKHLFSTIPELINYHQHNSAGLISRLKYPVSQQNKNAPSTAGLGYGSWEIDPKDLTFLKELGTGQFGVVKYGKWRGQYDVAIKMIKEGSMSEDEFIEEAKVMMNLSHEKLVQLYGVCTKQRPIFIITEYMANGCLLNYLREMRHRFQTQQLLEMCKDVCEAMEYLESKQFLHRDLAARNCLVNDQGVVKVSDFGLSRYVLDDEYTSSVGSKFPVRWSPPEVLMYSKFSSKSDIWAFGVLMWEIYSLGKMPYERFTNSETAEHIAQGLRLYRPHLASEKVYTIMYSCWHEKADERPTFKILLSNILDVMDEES

[27] = molecular target: each individual kinase of the panel (Homo sapiens, UniProt Q15759)
[28] = molecular target: each individual kinase of the panel (Homo sapiens, UniProt P45984)
[29] = molecular target: each individual kinase of the panel (Homo sapiens, UniProt Q08881)
[30] = molecular target: each individual kinase of the panel (Homo sapiens, UniProt Q96PF2)
[31] = molecular target: each individual kinase of the panel (Homo sapiens, UniProt Q15139)

Compound: C#Cc1cccc(Nc2nc3cc(C(=O)O)ccc3c3cncnc23)c1 [drawing 1135]
- TAO3 percentage of activity [1]: 22%
- LIMK1 percentage of activity [2]: 3%
- PRKCI percentage of activity [3]: −5%
- MAPKAPK3 percentage of activity [4]: −8%
- SRPK2 percentage of activity [5]: 36%
- EPHB3 percentage of activity [6]: −36%
- PRKCE percentage of activity [7]: 0%
- PRK2 percentage of activity [8]: 3%
- EPHA1 percentage of activity [9]: −6%
- AKT2 percentage of activity [10]: −10%
- PRKCB1 percentage of activity [11]: 0%
- ALK4 percentage of activity [12]: −15%
- PRKCD percentage of activity [13]: 7%
- DAPK2 percentage of activity [14]: 91%
- CHK2 percentage of activity [15]: 5%
- GSG2 percentage of activity [16]: 4%
- EPHA8 percentage of activity [17]: −15%
- DAPK1 percentage of activity [18]: 58%
- FGFR2 (N549H) percentage of activity [19]: 4%
- CHK2(1157T) (h) percentage of activity [20]: 3%
- MRCKB percentage of activity [21]: 0%
- FGFR1 (V561M) percentage of activity [22]: 12%
- CK1 delta percentage of activity [23]: −4%
- EPHA2 percentage of activity [24]: 2%
- PRKCN percentage of activity [25]: 2%
- BTK percentage of activity [26]: −5%
- p38-beta percentage of activity [27]: 5%
- JNK2A2 percentage of activity [28]: −7%
- ITK;Itk(h) percentage of activity [29]: 0%
- TSSK2 percentage of activity [30]: −9%
- PRKCM percentage of activity [31]: −4%
